The record followed here is patent publication US11084852B2, “Ubiquitin interacting motif peptides as therapeutics” (OKLAHOMA MEDICAL RESEARCH FOUNDATION, priority 2015, dated 2021).

A short description of data set [1]: Toxicity analysis of UPI peptide, plasma biomarkers. Also on record: ALB: unit not given here. As to conditions: for ALB: wild type mice, i.v. every second day up to 3 months. It is filed as in vivo, mice. How it is done: Age and gender matched wild type mice were intravenously injected with PBS (Control) or different concentration of UPI peptide every second day for up to 3 months. Plasma biochemical parameters were evaluated by the UT-Southwestern Medical Center Core Facility in Dallas, Tex.

The test system of the next data set is atherosclerotic lesion. Kind of data set: ApoE-/- mouse atherosclerosis model. As to conditions: in vivo. The text has this:
(§1) FIGS. 25A-E. Therapeutic potential in atherosclerosis animal models. (FIG. 25A) Targeting lyp-UIM peptide to atheroma by FITC conjugated peptide. (FIG. 25B). […] (FIG. 25C) Quantification for FIG. 25B, red bars represent lesion area by percentile; green bars represent macrophage percentile in different treatment. P values is indicated in the graphs.

The next data set deals with atherosclerosis lesion. The experiment in a line: Carotid atherosclerotic mouse model. It is filed as in vivo.
Excerpt: as §1

Data set [2] in a line: Kinetic analysis and FUPI peptide distribution in vivo in LLC or B16 tumor-bearing mice. How it is done: FIGS. 7A-C. Pharmacokinetics of UPI peptide in ex vivo plasma and tumor vessels. (FIG. 7A) Biotinylated-UPI peptide was incubated in ex vivo plasma at 1 μg/ml concentration. The remaining biotin-labeled UPI peptide was quantified by ELISA as indicated at different time point, n=5; (FIG. 7B) FUPI peptide (10 mg/kg, one injection) was i.v.-injected into mice bearing B16 tumors. A time course was scheduled to sacrifice mice as indicated from 2-48 hrs.
FIG. 8. FUPI peptide specifically homes to tumors. B16 tumor-bearing mice were sacrificed at 24-hr time point after control (PBS) or FUPI peptide injection (10 mg/kg, i.v-injection). Tumor and major organs were stained with CD31 (red) and imaged at red channel (CD31), blue channel (DAPI) and green channel (FUPI). Note that green (FITC) is seen only in tumors. […] Other major organs (liver, lung, heart, spleen, kidney, colon, brain, etc) are free of green color, n=4; scale bar: 200 μm.
LLC or B16 tumor-bearing mice were intravenously injected with 20 mg/kg FUPI peptide then sacrificed at different time points. […] FITC and CD31 fluorescent intensity was quantified using Metamorph software. The number of FUPI and CD31-positive vessels were counted and presented as a percentage of FUPI-positive vessels-to-total CD31-positive vessels.

For another data set, the system named is HUVEC^αvβ3 cells. The experiment in a line: Targeting and localization of FITC-conjugated peptides in cultured HUVEC. It is filed as cell-based, human. How it is done:
FIGS. 6A-E. Targeting and localization of UPI peptides in cultured HUVEC^αvβ3. (FIGS. 6A-C) HUVECs were co-transfected with integrins αv and β3 plasmids by electroporation (Nucleofactor device, Lonza), generating HUVEC^αvβ3 cells. 10 μM FUPI (FITC-conjugated UPI) peptide was added to HUVEC^αvβ3 cells or pcDNA transfected control HUVECs.
To ensure targeting specificity and efficacy of the UPI, the inventors treated HUVEC overexpressing αvβ3 integrin (HUVEC^αvβ3) with FITC-conjugated UPI (FUPI) or AP-UIM (FITC-AP-UIM) (Table 2). Normal quiescent endothelial cells, such as HUVEC, express endogenous αvβ3 integrin. However, compared to tumor endothelial cells this expression is considerably lower. By overexpressing αvβ3 integrin in HUVEC, the inventors distinguished peptide targeting to endothelial cells in quiescent versus tumor vasculature. Overexpression of αvβ3 integrin was monitored by FACS and Western blotting (FIGS. 6A-C). […] Given the selective nature of the UPI peptide in vitro, the inventors next validated its tumor vascular-targeting efficacy in vivo after intravenous (i.v.) administration into Lewis lung carcinoma (LLC) and B16F10 (B16) melanoma subcutaneous tumor-bearing mice. […]

Data set [3] relates to Lewis lung carcinoma (LLC) tumors. Kind of data set: Subcutaneous LLC tumor model. Also on record: species or system mice. As to conditions: mouse, in vivo. The text has this: C56BL/6 mice and TRAMP prostate cancer models were obtained from Jackson Laboratory. SCID/NOD immune-deficient mice were purchased from Charles River Labs (Wilmington, Mass.). WT-Flk, EC-iDKO, EC-iDKO-Flk and EC-iDKO-Notch mice were generated by crossing conditional double knockout mice (EC-iDKO) with Flk-1^fl/fl or NICD^LSL mice as described in (FIGS. 13A-D) (Pasula et al., 2012; Tessneer et al., 2014). All animal protocols have been approved by the IACUC in Oklahoma Medical Research Foundation. Animal tumor models were established as follows: • (1) Subcutaneous Tumor Models (LLC, melanoma B16 and glioma U87/SCID): LLC, melanoma and glioma tumor models were established as previously described (Pasula et al., 2012). Synthetic peptides were administered at 10 mg/kg intravenously every second day beginning after small tumors were established (20-50 mm^3; approximately 12 days post implantation). Tumor volumes were monitored every other day until euthanized following IACUC tumor scoring system. • (2) TRAMP Prostate Tumor Model (Transgenic Adenocarcinoma of Mouse Prostate). […] Mortality rates were recorded. Prostate tumors were analyzed by weighing genitourinary tract (GU), H&E staining, IHC, IF staining and Western blotting as previously described (Pasula et al., 2012; Tessneer et al., 2013). Lymph nodes, lung, liver, spleen and bones were similarly analyzed for metastasis. • (3) B16 Melanoma Metastasis Model. […] Mice were sacrificed after 5 weeks and tissues (including lung, liver and lymph nodes, etc.) were harvested and analyzed for metastasis by gross morphology, H&E, IHC or IF staining, as well as Western blotting. • (4) Orthotopical Glioma Tumor Models (U87/SCID and GL261/C56BL/6). […] Tumors were monitored by MRI as previously described (Pasula et al., 2012). […] Tumor volume was analyzed by MRI every other day until the mice died or were euthanized following IACUC tumor scoring system. Mortality rates were recorded. […]

Positions of bridges follow the written chain, without caps; N, C: chain ends. Non-standard residues stand in square brackets, D forms with d. Residues, ends and D or L forms follow the SMILES beside them. No end group written: not given here. *: point of attachment. FITC = O=C1OC2(c3ccc(O)cc3Oc3cc(O)ccc32)c2ccc(NC(=S)*)cc21

In data set [1] (10 mg/kg), `CC[C@@H](C)[C@@H](NC(=O)[C@@H](CS)NC(=O)CNC(=O)[C@@H](CCSC)NC(=O)[C@@H](CCC(=O)O)NC(=O)[C@@H](CCC(=O)O)NC(=O)[C@@H](CCCCN)NC(=O)[C@@H](CO)NC(=O)[C@@H](CCSC)NC(=O)[C@@H](C)NC(=O)[C@@H](CC(C)C)NC(=O)[C@@H](C)NC(=O)[C@@H](CC(C)C)NC(=O)[C@@H](CCC(N)=O)NC(=O)[C@@H](CC(C)C)NC(=O)[C@@H](CCC(N)=O)NC(=O)[C@@H](CC(C)C)NC(=O)[C@@H](CCC(=O)O)NC(=O)[C@@H](CCC(=O)O)NC(=O)[C@@H](CCC(=O)O)NC(=O)CNC(=O)[C@H](N)CO)C(=O)N[C@H](CCCCN)C(=O)N[C@H](CO)C(=O)N[C@H](CCCCN)C(=O)N[C@H](CCCNC(=N)N)C(=O)N[C@H](CCCCN)C(=O)N[C@@H]1CSSC[C@H](C(=O)O)NC(=O)[C@@H](CC(=O)O)NC(=O)[C@H]2CCCN2C(=O)CNC(=O)[C@@H](CCCCN)NC(=O)[C@@H](CC(=O)O)NC(=O)CNC(=O)[C@@H](CCCNC(=N)N)NC1=O` [UPI peptide] (H-[dS]G[dE][dE][dE][dL][dQ][dL][dQ][dL][dA][dL][dA][dM][dS][dK][dE][dE][dM]G[dC][dI][dK][dS][dK][dR][dK][dC][dR]G[dD][dK]G[dP][dD][dC]-OH; disulfide 28-36; N-terminus and C-terminus assumed) gave an ALT of 63.5 ± 10.8 U/L, an AST of 62.3 ± 3.6 U/L, a BUN of 18.0 ± 0.8 mg/dL and a CK of 163.5 ± 50.0 U/L. Besides, in data set [1] (10 mg/kg), the CREA is recorded as 0.173 ± 0.02 mg/dL, the GGT is below 5 U/L, the LDH is on record as 397.8 ± 26.0 U/L and the TBIL is reported as below 0.01 mg/dL. Also, in data set [1] (10 mg/kg), the ALB is 1.98 ± 0.1. Moreover, in data set [1] (25 mg/kg), the ALT was 65.3 ± 4.0 U/L, the AST was 55.0 ± 5.3 U/L, the BUN turned out to be 18.7 ± 2.5 mg/dL and the CK was found to be 165.7 ± 8.6 U/L. In addition, in data set [1] (25 mg/kg), the CREA turned out to be 0.160 ± 0.02 mg/dL, the GGT is on record as below 5 U/L, the LDH is 365.7 ± 77.9 U/L and the TBIL is below 0.01 mg/dL. The same molecule came in with an ALB in data set [1] (25 mg/kg) of 2.0 ± 0.1. Besides, in data set [1] (50 mg/kg), the ALT turned out to be 71.7 ± 6.0 U/L, the AST is recorded as 52.0 ± 4.4 U/L, the BUN was 21.0 ± 2.0 mg/dL and the CK stood at 153.7 ± 33.9 U/L. In data set [1] (50 mg/kg), this molecule came in with a CREA of 0.180 ± 0.02 mg/dL, a GGT below 5 U/L, an LDH of 481.5 ± 12.1 U/L and a TBIL below 0.01 mg/dL. This molecule gave an ALB in data set [1] (50 mg/kg) of 2.2 ± 0.2. The “kidney, liver or muscle functions (biomarker analysis, PBS vs UPI peptide-treated mice)” value in data set [1] (Table 3) is on record as “no statistical differences in kidney, liver or muscle functions”.
As for “CGNKRTRGCSGEEELQLQLALAMSKEE [Lyp-UIM peptide]”, in the data set with atherosclerotic lesion, the “atherosclerotic lesion development (arch)” value is given as “significantly attenuated atherosclerotic lesion development (arch)” and the “atherosclerotic lesion development (root)” value is reported as “significantly attenuated atherosclerotic lesion development (root)”. Also, the macrophage infiltration result with atherosclerosis lesion (mouse, in vivo) is “reduced macrophage infiltration”. Further, the atherosclerosis lesion development result with atherosclerosis lesion (western diet) was “greatly reduced atherosclerosis lesion development”.
With “FUPI: FITC-conjugated UPI peptide ({FITC}-[dS]G[dE][dE][dE][dL][dQ][dL][dQ][dL][dA][dL][dA][dM][dS][dK][dE][dE][dM]G[dC][dI][dK][dS][dK][dR][dK][dC][dR]G[dD][dK]G[dP][dD][dC]; disulfide 28-36 (inferred); not fully specified)”, in data set [2] (B16 melanoma tumors, one i.v. injection), the “retention within vessels of tumors after injection” value was “up to 48 hours”. The “tissue distribution after intravenous injection” value in data set [2] (subcutaneous LLC or B16 melanoma tumors) is given as “significant concentration within tumor vasculature, but not other major organs”. The “peptide accumulation in HUVEC^αvβ3 versus HUVEC” value with HUVEC^αvβ3 cells (FITC-conjugated peptide, 10 μM, 15 hr) is reported as “accumulated selectively in HUVEC^αvβ3, but not in HUVEC alone”. Besides, in the data set with HUVEC^αvβ3 cells (HUVEC^αvβ3), the “intracellular localization of accumulated peptide” value was “highly enriched at the plasma membrane”.
For the molecule “QEEEELQLALALSQSEAEEKMGCIKSKRKCRGDKGPDC [Hrs-UIM]”, the “tumor growth in LLC tumor-bearing mice, variant peptides” value in data set [3] is on record as “neither Eps15-UIM nor Hrs-UIM peptides affected tumor growth”.
As to “SEEDMIEWAKRESEREEEQRMGCIKSKRKCRGDKGPDC [Eps15-UIM]”, the “tumor growth in LLC tumor-bearing mice, variant peptides” value in data set [3] was “neither Eps15-UIM nor Hrs-UIM peptides affected tumor growth”.
